Consider 5 molecules from patent US4656247A, “Effective hormonal peptides: D-3-QA1 6-LHRH” (Board of Regents, The University of Texas System, priority 1985, dated 1987).

One assay has as its system 21 day old female rats. Briefly: In vivo assay in rats for release of LH and FSH. The note with it: for LH ± SEM ng/ml serum / FSH ± SEM ng/ml serum: Table XI, mean 5-6; for LH ng/ml Serum ± SEM: Table VII; for Serum LH ng/ml ± SEM / Serum FFSH ng/ml ± SEM: Table VI, sampling time not given. The arrangement: species or system rat. The procedure:
In vivo rat assay performed by a modification of the method of Bowers, C. Y. et al. Endocrinology, 106, 674 (1980). 21 day old female rats were injected sc with saline or peptide. Blood samples for the RIAs of LH and FSH were collected at +15, +60, +120, or +180 minutes. (Table VI-XI).

The test system of a further assay is men. The note with it: chronic administration; cited from earlier work.
Assay [1] concerns advanced prostatic carcinoma. The note with it: subcutaneous, daily; cited from earlier work.
Assay [2] has as its system pituitary cells from 21 day old rats. Briefly: In vitro pituitary incubate assay (release of LH and FSH). The assay is classed as cell-based, rat. The procedure: The data in Tables IV and V are from the in vitro assay of the peptides with the pituitary incubate. This assay measures the release of LH and FSH in an in vitro system with pituitary cells from 21 day old rats. See, Bowers, C. Y. et al. on the inhibitory effects of leutinizing hormone releasing hormone analogs. Endocrinology, 106: 674 (1980).

A short description of assay [3]: Peptides tested biologically (summary statement). The conditions noted are these: when tested biologically.
The mark [4] stands for this setting: 150 ng sc, first column (+ 2 hrs as in upper part).
The mark [5] stands for this setting: 150 ng sc, second column (+3 hrs as in upper part).

For the molecule `CCNC(=O)[C@@H]1CCCN1C(=O)[C@H](CCCNC(=N)N)NC(=O)[C@H](CC(C)C)NC(=O)[C@@H](Cc1cccnc1)NC(=O)[C@H](Cc1ccc(O)cc1)NC(=O)[C@H](CO)NC(=O)[C@H](Cc1c[nH]c2ccccc12)NC(=O)[C@H](Cc1c[nH]cn1)NC(=O)[C@@H]1CCC(=O)N1` [Peptide 21436, pryoGlu-His-Trp-Ser-Tyr-D-3-Pal-Leu-Arg-Pro-NHC2 H5], the “LH ± SEM ng/ml serum” value is listed as 237 ± 52 ng/ml serum in the assay with 21 day old female rats (150 ng sc, + 2 hrs) and 106 ± 13 ng/ml serum in the assay with 21 day old female rats (150 ng sc, +3 hrs). The “FSH ± SEM ng/ml serum” value in the assay with 21 day old female rats (setting [4]) amounted to 2415 ± 361 ng/ml serum; in the assay with 21 day old female rats (setting [5]), 2205 ± 298 ng/ml serum.

As to `CC(C)C[C@H](NC(=O)[C@@H](Cc1c[nH]c2ccccc12)NC(=O)[C@H](Cc1ccc(O)cc1)NC(=O)[C@H](CO)NC(=O)[C@H](Cc1c[nH]c2ccccc12)NC(=O)[C@H](Cc1c[nH]cn1)NC(=O)[C@@H]1CCC(=O)N1)C(=O)N[C@@H](CCCNC(=N)N)C(=O)N1CCC[C@H]1C(=O)NCC(N)=O` [D-Trp^6 -LHRH, pyroGluHis-Trp-Ser-Tyr-D-Trp-Leu-Arg-Pro-Gly-NH2], the “LH ng/ml Serum ± SEM” value with 21 day old female rats (10 mg/rat sc, ± 60 min) turned out to be 31 ± 6 ng/mL; in the assay with 21 day old female rats (± 15 min) it was 51 ± 10 ng/mL; in the assay with 21 day old female rats (± 60 min), 259 ± 34 ng/mL. Also, the “LH ± SEM ng/ml serum” value in the assay with 21 day old female rats (150 ng sc, + 2 hrs) came to 230 ± 41 ng/ml serum; in the assay with 21 day old female rats (150 ng sc, +3 hrs) it was 117 ± 9 ng/ml serum. Moreover, the “FSH ± SEM ng/ml serum” value in the assay with 21 day old female rats (setting [4]) came to 2332 ± 388 ng/ml serum; with 21 day old female rats (setting [5]), 2065 ± 151 ng/ml serum. The “effect on Leydig cell function and serum steroid levels” value in the assay with men was “suppression of Leydig cell function and decreases in serum levels of testosterone, dihydrotestosterone and estradiol”. The “clinical effect in patients with more advanced prostatic disease” value in assay [1] is given as “pain from bone metastases was relieved”. Further, the “clinical effect in patients with urinary obstruction” value in assay [1] is “noticeable clinical improvement”.

On to `CCNC(=O)[C@@H]1CCCN1C(=O)[C@H](CCCNC(=N)N)NC(=O)[C@H](CC(C)C)NC(=O)[C@@H](Cc1c[nH]c2ccccc12)NC(=O)[C@H](Cc1ccc(O)cc1)NC(=O)[C@H](CO)NC(=O)[C@H](Cc1c[nH]c2ccccc12)NC(=O)[C@H](Cc1c[nH]cn1)NC(=O)[C@@H]1CCC(=O)N1` [D-Trp^6 Pro^9 Net-LHRH, pyroGluHis-Trp-Ser-Tyr-D-Trp-Leu-Arg-Pro-EA**], for which the “LH ng/ml Serum ± SEM” value in the assay on 21 day old female rats (± 15 min) is 59 ± 10 ng/mL; in the assay with 21 day old female rats (± 60 min) it was 228 ± 41 ng/mL. In addition, the “LH ± SEM ng/ml serum” value is listed as 184 ± 29 ng/ml serum in the assay on 21 day old female rats (150 ng sc, + 2 hrs) and 103 ± 9 ng/ml serum in the assay with 21 day old female rats (150 ng sc, +3 hrs). Further, the figures for the “FSH ± SEM ng/ml serum” value in the assay on 21 day old female rats (setting [4]) and in the assay with 21 day old female rats (setting [5]) were 2260 ± 294 ng/ml serum and 1763 ± 148 ng/ml serum, respectively.

On to `CC(C)C[C@H](NC(=O)[C@@H](Cc1cccnc1)NC(=O)[C@H](Cc1ccc(O)cc1)NC(=O)[C@H](CO)NC(=O)[C@H](Cc1c[nH]c2ccccc12)NC(=O)[C@H](Cc1c[nH]cn1)NC(=O)[C@@H]1CCC(=O)N1)C(=O)N[C@@H](CCCNC(=N)N)C(=O)N1CCC[C@H]1C(=O)NCC(N)=O` [D-Pal^6 -LHRH, pyroGlu-His-Trp-Ser-Tyr-D-3-Pal-Leu-Arg-Pro-GlyNH2], for which the “activity for the release of FSH (D-Pal^6 vs D-Qal^6, words)” value in assay [2] (at 0.1 ng, Table IV) is reported as “same essential equivalents”. Besides, in assay [2] (at 0.1 ng, Table IV), the “activity for the release of LH (D-Pal^6 vs D-Qal^6, words)” value is “essentially equivalent in activity”. Also, in assay [2] (inference from Table IV and comparable assays), the “potency compared with D-Trp^6 -LHRH, inferred via D-Qal^6 -LHRH” value is “essentially equipotent”. Further, the “Serum LH ng/ml ± SEM” value with 21 day old female rats (5 ng/rat sc) turned out to be 7 ± 1 ng/mL. Also, the “LH ± SEM ng/ml serum” value turned out to be 108 ± 17 ng/ml serum in the assay on 21 day old female rats (50 ng sc, + 2 hrs); 20 ± 2.3 ng/ml serum in the assay with 21 day old female rats (50 ng sc, +3 hrs); 144 ± 27 ng/ml serum with 21 day old female rats (150 ng sc, + 2 hrs); 38 ± 6.3 ng/ml serum in the assay with 21 day old female rats (150 ng sc, +3 hrs). The “FSH ± SEM ng/ml serum” value in the assay on 21 day old female rats (50 ng sc, first column (+ 2 hrs as in upper part)) was found to be 1727 ± 222 ng/ml serum; in the assay on 21 day old female rats (50 ng sc, second column (+3 hrs as in upper part)), 1312 ± 163 ng/ml serum; in the assay on 21 day old female rats (setting [4]), 2362 ± 293 ng/ml serum; in the assay on 21 day old female rats (setting [5]), 1617 ± 143 ng/ml serum. Also, in the assay on 21 day old female rats (dosage of 5 ng), the “release of LH” value was “significantly released LH”. Also, the “LH released relative to LHRH, corrected for the level of LH before addition of the peptides” value in the assay on 21 day old female rats (dosage of 50 ng) was approximately 50 times. The “potency compared with LHRH” value in assay [3] is “significantly more potent than LHRH itself”.

As for “LHRH: leutinizing hormone releasing hormone, the peptide hormone which exists naturally in the hypothalamus”, the “Serum FFSH ng/ml ± SEM” value in the assay with 21 day old female rats (15 ng/rat sc) stood at 475 ± 43 ng/mL; in the assay on 21 day old female rats (50 ng/rat sc), 572 ± 68 ng/mL; in the assay on 21 day old female rats (150 ng/rat sc) it was 839 ± 73 ng/mL. The entries for the “Serum LH ng/ml ± SEM” value with 21 day old female rats (15 ng/rat sc), in the assay on 21 day old female rats (50 ng/rat sc) and in the assay on 21 day old female rats (150 ng/rat sc) were 1.3 ± 0.2 ng/mL, 3.2 ± 0.3 ng/mL and 12 ± 3 ng/mL, respectively. For the same molecule, the “LH ng/ml Serum ± SEM” value with 21 day old female rats (± 15 min) worked out at 49 ± 10 ng/mL; in the assay with 21 day old female rats (± 60 min) it was 5.5 ± 0.9 ng/mL. For the same molecule, the “LH ± SEM ng/ml serum” value is on record as “.18 ± 0.07 ng/ml serum” in the assay on 21 day old female rats (150 ng sc, + 2 hrs) and 0.66 ± 0.46 ng/ml serum in the assay with 21 day old female rats (150 ng sc, +3 hrs). The “FSH ± SEM ng/ml serum” value in the assay on 21 day old female rats (setting [4]) came out at 337 ± 20 ng/ml serum; in the assay with 21 day old female rats (setting [5]), 487 ± 72 ng/ml serum. For the same molecule, the “release of LH” value in the assay with 21 day old female rats (at 15 ng) is “inactive”.
